In US9963467B2, “Boronic acid derivatives and therapeutic uses thereof” (Rempex Pharmaceuticals, Inc., priority 2014, dated 2018):

Assays:
KP1009 (CTX-M-15) = test: Tigemonam potentiation (MPC@4), KP1009; format: cell-based; conditions: BLI with tigemonam at 4 μg/mL
Pa AmpC = Pa AmpC (Pseudomonas aeruginosa, UniProt P24735); test: Ki, nitrocefin cleavage by purified enzyme, Pa AmpC; format: biochemical; conditions: nitrocefin reporter substrate; read-out: Ki (Pa AmpC, NCF)
Protocol: Ki values of inhibition of purified class A, C and D enzymes were determined spectrophotometrically using nitrocefin as reporter substrate. Purified enzymes were mixed with various concentrations of inhibitors in reaction buffer and incubated for 10 min at room temperature. Nitrocefin was added and substrate cleavage profiles were recorded at 490 nm every 10 sec for 10 min. These experiments confirmed that the described compounds are inhibitors with a broad-spectrum of activity towards various β-lactamases.

ec302 (TEM-10) [1] = test: Aztreonam potentiation (MPC@4), ec302; format: cell-based; conditions: BLI with aztreonam at 4 μg/mL
KP1004 (KPC-2) = test: Biapenem potentiation (MPC@1), KP1004; conditions: for BPM MPC1 KP1004 KPC-2: BLI with biapenem at 1 μg/mL
ECL1002 [2] = test: Aztreonam potentiation (MPC@4), ECL1002; format: cell-based; conditions: BLI with aztreonam at 4 μg/mL
EC1010 (CMY-6) [3] = test: organism not typed; format: cell-based
CTX-M-14 = CTX-M-14 (Escherichia coli, UniProt Q9L5C7); test: Ki, nitrocefin cleavage by purified enzyme, CTX-M-14; format: biochemical; conditions: nitrocefin reporter substrate; read-out: Ki (CTX-M-14, NCF)
Chain of CTX-M-14 (Q9L5C7 29-291): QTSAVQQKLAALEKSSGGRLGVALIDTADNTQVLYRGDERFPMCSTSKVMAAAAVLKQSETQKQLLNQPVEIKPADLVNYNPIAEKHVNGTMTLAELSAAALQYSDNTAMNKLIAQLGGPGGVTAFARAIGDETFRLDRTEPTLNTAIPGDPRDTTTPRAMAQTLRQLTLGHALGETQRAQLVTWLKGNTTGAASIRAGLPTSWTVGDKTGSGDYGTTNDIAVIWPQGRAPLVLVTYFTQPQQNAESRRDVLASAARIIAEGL
Protocol: (§1) Purified enzymes were mixed with various concentrations of inhibitors in reaction buffer and incubated for 10 min at room temperature. Nitrocefin was added and substrate cleavage profiles were recorded at 490 nm every 10 sec for 10 min.

ec308 (SHV-5) = test: Tigemonam potentiation (MPC@4), ec308; format: cell-based
KP1086 (OXA-48) = test: Biapenem potentiation (MPC@1), KP1086; conditions: for BPM MPC1 OXA-48 KP1086: BLI with biapenem at 1 μg/mL
OXA-48 = OXA-48 (Klebsiella pneumoniae, UniProt Q6XEC0); test: Ki, nitrocefin cleavage by purified enzyme, OXA-48; format: biochemical; conditions: nitrocefin reporter substrate; read-out: Ki (OXA-48, NCF)
Chain of OXA-48 (Q6XEC0 23-265, looked up, species assumed): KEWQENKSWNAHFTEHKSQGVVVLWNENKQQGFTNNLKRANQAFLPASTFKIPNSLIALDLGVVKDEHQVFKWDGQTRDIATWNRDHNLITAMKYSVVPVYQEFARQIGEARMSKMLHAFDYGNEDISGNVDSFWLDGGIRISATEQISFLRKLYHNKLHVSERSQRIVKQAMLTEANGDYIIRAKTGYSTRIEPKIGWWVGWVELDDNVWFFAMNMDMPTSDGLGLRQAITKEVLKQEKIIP
Protocol: as §1

ec302 (TEM-10) [4] = test: Tigemonam potentiation (MPC@4), ec302; format: cell-based
EC1010 (CMY-6) [5] = test: Tigemonam potentiation (MPC@4), EC1010; format: cell-based; conditions: BLI with tigemonam at 4 μg/mL
KPC-2 = KPC-2 (Klebsiella pneumoniae, UniProt Q9F663); test: Ki, nitrocefin cleavage by purified enzyme, KPC-2; format: biochemical; conditions: nitrocefin reporter substrate; read-out: Ki (KPC-2, NCF)
Chain of KPC-2 (Q9F663 25-293, looked up, species assumed): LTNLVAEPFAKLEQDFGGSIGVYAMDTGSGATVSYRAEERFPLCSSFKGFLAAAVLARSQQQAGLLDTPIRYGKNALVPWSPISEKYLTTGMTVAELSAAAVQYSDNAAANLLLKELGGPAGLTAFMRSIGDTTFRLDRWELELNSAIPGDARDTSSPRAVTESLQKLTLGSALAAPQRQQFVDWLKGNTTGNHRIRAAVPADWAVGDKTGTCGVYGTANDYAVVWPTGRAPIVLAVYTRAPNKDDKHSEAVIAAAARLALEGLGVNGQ
Protocol: as §1

KP1005 (CTX-M-14) = test: Tigemonam potentiation (MPC@4), KP1005; format: cell-based; conditions: BLI with tigemonam at 4 μg/mL
P99 = P99 (Enterobacter cloacae, UniProt P05364); test: Ki, nitrocefin cleavage by purified enzyme, P99; format: biochemical; conditions: nitrocefin reporter substrate; read-out: Ki (P99, NCF)
Chain of P99 (P05364 21-381): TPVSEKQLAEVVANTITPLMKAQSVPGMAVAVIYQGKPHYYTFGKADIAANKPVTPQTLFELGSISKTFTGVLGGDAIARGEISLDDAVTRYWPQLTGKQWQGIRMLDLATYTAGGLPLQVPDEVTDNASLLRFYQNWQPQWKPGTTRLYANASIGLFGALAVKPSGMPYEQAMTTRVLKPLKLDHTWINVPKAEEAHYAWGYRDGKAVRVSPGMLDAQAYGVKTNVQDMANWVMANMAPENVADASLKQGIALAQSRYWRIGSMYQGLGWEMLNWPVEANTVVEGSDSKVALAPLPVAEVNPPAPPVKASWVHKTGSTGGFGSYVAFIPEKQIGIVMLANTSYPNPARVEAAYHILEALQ
Protocol: as §1

ECL1002 [6] = test: Tigemonam potentiation (MPC@4), ECL1002; format: cell-based; conditions: BLI with tigemonam at 4 μg/mL
KP1010 (SHV-12) = test: Tigemonam potentiation (MPC@4), KP1010; format: cell-based
SHV-12 = SHV-12 (Klebsiella pneumoniae, UniProt P0AD64, E235K/G234S/L31Q); test: Ki, nitrocefin cleavage by purified enzyme, SHV-12; format: biochemical; conditions: nitrocefin reporter substrate; read-out: Ki (SHV-12, NCF)
Chain of SHV-12 (P0AD64 22-286 L31Q/G234S/E235K): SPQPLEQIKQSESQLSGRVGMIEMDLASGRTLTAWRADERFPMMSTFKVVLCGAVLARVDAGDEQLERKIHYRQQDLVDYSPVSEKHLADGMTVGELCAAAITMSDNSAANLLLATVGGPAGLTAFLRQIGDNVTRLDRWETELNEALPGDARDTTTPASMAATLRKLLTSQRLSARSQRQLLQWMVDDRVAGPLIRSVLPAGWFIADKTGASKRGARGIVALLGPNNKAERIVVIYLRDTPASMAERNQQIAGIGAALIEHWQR
Protocol: as §1

[7] = Serum stability of prodrugs, human serum; format: in vitro ADME
Protocol: (§2) Prodrug strategy is one of the ways to achieve or increase oral bioavailability for therapeutic drugs. […] After a prodrug molecule is absorbed into systemic circulation, it should be hydrolyzed in the blood in order to release the active form. Hydrolysis of several prodrugs by rat and human serum were evaluated.
(§3) For all stability experiments the test compounds were treated with rat or human serum in Eppendorf tubes. Typically, 992 μl of serum was prewarmed at 37 degrees for 2 minutes and then 8 μl of a compound (at 5 mg/ml, 125×) was added to it to get a final concentration of […] and immediately mixed. Alternatively, serum stability might be tested at 1 mg/ml. […] After vortexing for 30 seconds, the tube was centrifuged in a microcentrifuge for 10 minutes at 15K rpm. Next, 100 μl of the supernatant was combined with 600 μl of water and injected on LC-MS using 0.1% formic acid in water for mobile phase A and 0.1% formic acid in methanol for mobile phase B on an ACE 5 C18 2.1×100 mm column with a 10 μL injection. The flow rate and gradient were adjusted as needed to give the desired resolution and run time. The pH of the mobile phase was adjusted if needed to improve the chromatography.
(§4) The time course of both the disappearance of a prodrug and the appearance of the active form of that prodrug is presented in Table 6 and Table 7. The active metabolites for all of the listed prodrugs are corresponding parent drugs

[8] = Serum stability of prodrugs, rat serum; format: in vitro ADME; conditions: theoretical initial conc. 40 ug/mL
Protocol: as §2, §3, §4

[9] = human serum, prodrug, theoretical initial conc. 40 ug/mL

Chain of Pa AmpC (P24735 27-397): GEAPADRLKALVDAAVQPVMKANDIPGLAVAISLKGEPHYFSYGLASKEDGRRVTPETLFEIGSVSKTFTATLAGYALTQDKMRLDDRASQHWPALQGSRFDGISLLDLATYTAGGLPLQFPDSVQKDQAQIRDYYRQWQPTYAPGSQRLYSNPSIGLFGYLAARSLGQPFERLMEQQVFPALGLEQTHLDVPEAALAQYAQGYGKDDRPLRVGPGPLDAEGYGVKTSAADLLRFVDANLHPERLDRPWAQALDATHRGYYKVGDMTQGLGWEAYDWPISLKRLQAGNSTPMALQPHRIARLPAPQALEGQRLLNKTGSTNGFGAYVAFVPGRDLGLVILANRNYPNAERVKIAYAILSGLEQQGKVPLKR

COc1ccc2c(c1C(=O)O)OB(O)[C@@H](NC(=O)CSC1CNC1)C2 [Compound 26, (R)-3-(2-(azetidin-3-ylthio)acetamido)-2-hydroxy-7-methoxy-3,4-dihydro-2H-benzo[e][1,2]oxaborinine-8-carboxylic acid]
TIG MPC4 CTX-M-15 KP1009 (KP1009 (CTX-M-15)): X (MIC of less than 1 μg/mL)
Ki (Pa AmpC): > 10 nM
AZT MPC4 TEM-10 ec302 (ec302 (TEM-10) [1]): Y (MIC of 1 μg/mL to 10 μg/mL)
BPM MPC1 KP1004 KPC-2 (KP1004 (KPC-2)): X (MIC of less than 1 μg/mL)
AZT MPC4 ECL1002 (ECL1002 [2]): Y (MIC of 1 μg/mL to 10 μg/mL)
AZT MPC4 CMY-6 EC1010 (EC1010 (CMY-6) [3]): Y (key: X: MIC of less than 1 ng/mL; Y: MIC of 1 μg/mL to 10 μg/mL; Z: MIC of greater than 10 μg/mL)
Ki (CTX-M-14): < 1 nM
TIG MPC4 SHV-5 ec308 (ec308 (SHV-5)): X (key: X: MIC of less than 1 μg/mL; Y: MIC of 1 μg/mL to 10 μg/mL; Z: MIC of greater than 10 μg/mL)
BPM MPC1 OXA-48 KP1086 (KP1086 (OXA-48)): Y (MIC of 1 μg/mL to 10 μg/mL)
Ki (OXA-48): 1 to 10 nM
TIG MPC4 TEM-10 ec302 (ec302 (TEM-10) [4]): Y (key: X: MIC of less than 1 ng/mL; Y: MIC of 1 μg/mL to 10 μg/mL; Z: MIC of greater than 10 μg/mL)
TIG MPC4 CMY-6 EC1010 (EC1010 (CMY-6) [5]): X (MIC of less than 1 μg/mL)
Ki (KPC-2): > 10 nM
TIG MPC4 CTX-M-14 KP1005 (KP1005 (CTX-M-14)): X (MIC of less than 1 μg/mL)
Ki (P99): > 10 nM
TIG MPC4 ECL1002 (ECL1002 [6]): X (MIC of less than 1 μg/mL)
TIG MPC4 SHV-12 KP1010 (KP1010 (SHV-12)): X (key: X: MIC of less than 1 μg/mL; Y: MIC of 1 μg/mL to 10 μg/mL; Z: MIC of greater than 10 μg/mL)
Ki (SHV-12): < 1 nM

C[C@@H](O)[C@H]1C(=O)N2C(C(=O)[O-])=C(SC3Cn4cnc[n+]4C3)[C@H](C)[C@H]12 (stereo partly drawn) [Biapenem, reference compound]
MIC (KP1004 (KPC-2); read-out: Biapenem MIC KP1004): > 10 µg/mL
MIC (KP1086 (OXA-48); read-out: Biapenem MIC KP1086): > 10 µg/mL

CCCC(=O)OCOC(=O)c1c(F)ccc2c1OB(O)[C@@H](NC(=O)CSC)C2 [Compound 13, (R)-butyryloxymethyl 7-fluoro-2-hydroxy-3-(2-(methylthio)acetamido)-3,4-dihydro-2H-benzo[e][1,2]oxaborinine-8-carboxylate]
Measured Initial Conc. in Serum ([7]; human serum, 37 degrees, theoretical initial conc. 40 ug/mL): 30.6 µg/mL
Conc. at t = 2 h [7, 9]: 1560 ng/mL
Conc. at t = 4 h [7, 9]: BQL
conversion of prodrug to active metabolite ([7]; serum (Tables 6 and 7), 4 hour experiment): completely converted to active metabolite
Measured Initial Conc. in Serum ([8]; 37 degrees): 28.1 µg/mL
Conc. at t = 2 h ([8]; prodrug): 9.81 (t = 2 h) ug/mL
Conc. at t = 4 h ([8]; prodrug): BQL

COc1ccc2c(c1C(=O)O)OB(O)[C@@H](NC(=O)CSC(F)F)C2 [Compound 25, (R)-3-(2-(difluoromethylthio)acetamido)-2-hydroxy-7-methoxy-3,4-dihydro-2H-benzo[e][1,2]oxaborinine-8-carboxylic acid]
TIG MPC4 CTX-M-15 KP1009 (KP1009 (CTX-M-15)): X (MIC of less than 1 μg/mL)
Ki (Pa AmpC): > 10 nM
AZT MPC4 TEM-10 ec302 (ec302 (TEM-10) [1]): X (MIC of less than 1 ng/mL)
BPM MPC1 KP1004 KPC-2 (KP1004 (KPC-2)): X (MIC of less than 1 μg/mL)
AZT MPC4 ECL1002 (ECL1002 [2]): Y (MIC of 1 μg/mL to 10 μg/mL)
AZT MPC4 CMY-6 EC1010 (EC1010 (CMY-6) [3]): Y (key: X: MIC of less than 1 ng/mL; Y: MIC of 1 μg/mL to 10 μg/mL; Z: MIC of greater than 10 μg/mL)
Ki (CTX-M-14): < 1 nM
TIG MPC4 SHV-5 ec308 (ec308 (SHV-5)): X (key: X: MIC of less than 1 μg/mL; Y: MIC of 1 μg/mL to 10 μg/mL; Z: MIC of greater than 10 μg/mL)
BPM MPC1 OXA-48 KP1086 (KP1086 (OXA-48)): Z (MIC of greater than 10 μg/mL)
Ki (OXA-48): < 1 nM
TIG MPC4 TEM-10 ec302 (ec302 (TEM-10) [4]): Y (key: X: MIC of less than 1 ng/mL; Y: MIC of 1 μg/mL to 10 μg/mL; Z: MIC of greater than 10 μg/mL)
TIG MPC4 CMY-6 EC1010 (EC1010 (CMY-6) [5]): X (MIC of less than 1 μg/mL)
Ki (KPC-2): 1 to 10 nM
TIG MPC4 CTX-M-14 KP1005 (KP1005 (CTX-M-14)): X (MIC of less than 1 μg/mL)
Ki (P99): 1 to 10 nM
TIG MPC4 ECL1002 (ECL1002 [6]): X (MIC of less than 1 μg/mL)
TIG MPC4 SHV-12 KP1010 (KP1010 (SHV-12)): X (key: X: MIC of less than 1 μg/mL; Y: MIC of 1 μg/mL to 10 μg/mL; Z: MIC of greater than 10 μg/mL)
Ki (SHV-12): < 1 nM
